The values that follow come from US10508104B2, “6-hydroxy-5-(phenyl/heteroarylsulfonyl)pyrimidin-4(1H)-one as APJ agonists” (Bristol-Myers Squibb Company, priority 2016, dated 2019).

Where two headings read alike, the source gives them in different places.

This test has as its target human APJ receptor (Homo sapiens (Human), UniProt P35414). In words: Intracellular cAMP accumulation assay (APJ hcAMP, HTRF). It is filed as cell-based. Particulars: read-out: Human APJ cAMP EC50 Potency range. The method in brief:
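HEK293 cells stably expressing human APJ, 5,000 per well, incubated 30 min at rt with compound, […] and 2 μM forskolin. cAMP measured by HTRF against a cAMP standard curve as inhibition of forskolin-driven production. EC50 from variable-slope sigmoidal fit.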

The mark [1] stands for this setting: HEK293 cells stably expressing human APJ receptor, inhibition of forskolin-mediated cAMP production.

human APJ receptor, sequence (P35414 whole entry): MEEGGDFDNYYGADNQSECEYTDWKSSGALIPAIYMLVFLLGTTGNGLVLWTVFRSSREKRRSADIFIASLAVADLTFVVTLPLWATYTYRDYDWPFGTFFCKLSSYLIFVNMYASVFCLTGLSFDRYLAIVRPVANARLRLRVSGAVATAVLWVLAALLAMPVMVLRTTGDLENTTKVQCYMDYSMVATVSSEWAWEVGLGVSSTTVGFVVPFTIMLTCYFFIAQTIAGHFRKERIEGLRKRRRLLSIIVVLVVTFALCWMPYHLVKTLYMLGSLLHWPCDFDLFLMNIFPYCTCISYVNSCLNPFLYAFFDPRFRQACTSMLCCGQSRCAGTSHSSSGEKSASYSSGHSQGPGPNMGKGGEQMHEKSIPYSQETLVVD

On to `CCCCc1nc(O)c(S(=O)(=O)c2ccc(Br)cc2)c(=O)n1[C@@H](CC)c1cccc2c1OCO2` [Example 261, 3-[(1S)-1-(2H-1,3-benzodioxol-4-yl)propyl]-5-(4-bromobenzenesulfonyl)-2-butyl-6-hydroxy-3,4-dihydropyrimidin-4-one], for which the EC50 (human APJ, cAMP accumulation) fell in the range of 0.01 to 10 nM. The same measure, in the same setting: under `CCCCc1nc(=O)c(S(=O)(=O)c2ccc(-c3ccc(F)nc3C)cc2)c(O)n1[C@H](CC)c1cccc2c1OCO2` [Example 262, 1-[(1R)-1-(2H-1,3-benzodioxol-4-yl)propyl]-2-butyl-5-[4-(6-fluoro-2-methylpyridin-3-yl)benzenesulfonyl]-6-hydroxy-1,4-dihydropyrimidin-4-one] stands 0.01 to 10 nM; under `CCCCc1nc(=O)c(S(=O)(=O)c2ccc(-c3cccnc3C)cc2)c(O)n1[C@@H](CC)c1cccc2c1OCO2` [Example 263, 1-[(1S)-1-(2H-1,3-benzodioxol-4-yl)propyl]-2-butyl-6-hydroxy-5-[4-(2-methylpyridin-3-yl)benzenesulfonyl]-1,4-dihydropyrimidin-4-one], 0.01 to 10 nM; under `CCCCc1nc(=O)c(S(=O)(=O)c2ccc(-c3ccc(F)nc3C)cc2)c(O)n1[C@@H](CC)c1cccc2c1OCO2` [Example 264, 1-[(1S)-1-(2H-1,3-benzodioxol-4-yl)propyl]-2-butyl-5-[4-(6-fluoro-2-methylpyridin-3-yl)benzenesulfonyl]-6-hydroxy-1,4-dihydropyrimidin-4-one], 0.01 to 10 nM. Regarding `CCCCc1nc(=O)c(S(=O)(=O)c2ccc(-c3ccncc3C)cc2)c(O)n1[C@@H](CC)c1ccc(C#N)cc1` [Example 265, 4-[(1S)-1-{2-butyl-6-hydroxy-5-[4-(3-methylpyridin-4-yl)benzenesulfonyl]-4-oxo-1,4-dihydropyrimidin-1-yl}propyl]benzonitrile], the EC50 (human APJ, cAMP accumulation) lay in the range of 0.01 to 10 nM. Consider `CCCCc1nc(=O)c(S(=O)(=O)c2ccc(-c3cccnc3C)cc2)c(O)n1[C@@H](CC)c1ccc(C#N)cc1` [Example 266, 4-[(1S)-1-{2-butyl-6-hydroxy-5-[4-(2-methylpyridin-3-yl)benzenesulfonyl]-4-oxo-1,4-dihydropyrimidin-1-yl}propyl]benzonitrile], for which the EC50 (human APJ, cAMP accumulation) was in the range of 0.01 to 10 nM.

As to `CCCCc1nc(=O)c(S(=O)(=O)c2ccc(-c3ccc(F)nc3C)cc2)c(O)n1[C@@H](CC)c1ccc(C#N)cc1` [Example 267, 4-[(1S)-1-{2-butyl-5-[4-(6-fluoro-2-methylpyridin-3-yl)benzenesulfonyl]-6-hydroxy-4-oxo-1,4-dihydropyrimidin-1-yl}propyl]benzonitrile], the EC50 (human APJ, cAMP accumulation) is 0.01 to 10 nM.

Turning to `CCCCc1nc(=O)c(S(=O)(=O)c2ccc(-c3ccnc(F)c3C)cc2)c(O)n1[C@@H](CC)c1ccc(C#N)cc1` [Example 268, 4-[(1S)-1-{2-butyl-5-[4-(2-fluoro-3-methylpyridin-4-yl)benzenesulfonyl]-6-hydroxy-4-oxo-1,4-dihydropyrimidin-1-yl}propyl]benzonitrile], the EC50 (human APJ, cAMP accumulation) was in the range of 0.01 to 10 nM. Take `COc1cccc(OC)c1-n1c(-c2ccc(F)cc2)nc(=O)c(S(=O)(=O)c2ccc(Br)cc2)c1O` [Example 269, 5-((4-Bromophenyl)sulfonyl)-1-(2,6-dimethoxyphenyl)-2-(4-fluorophenyl)-6-hydroxypyrimidin-4(1H)-one]: the EC50 under setting [1] lay within 100 to 300 nM.

Regarding `COc1cccc(OC)c1-n1c(-c2cncc(C)c2)nc(=O)c(S(=O)(=O)c2ccc(Br)cc2)c1O` [Example 270, 5-(4-bromobenzenesulfonyl)-1-(2,6-dimethoxyphenyl)-6-hydroxy-2-(5-methylpyridin-3-yl)-1,4-dihydropyrimidin-4-one], for the setting “human APJ, cAMP accumulation”, the EC50 lay in the range of 10 to 100 nM. Turning to `COc1cccc(OC)c1-n1c(-c2ccc(F)cc2)nc(=O)c(S(=O)(=O)c2ccc(-c3cccnc3C)cc2)c1O` [Example 271, 1-(2,6-Dimethoxyphenyl)-2-(4-fluorophenyl)-6-hydroxy-5-((4-(2-methylpyridin-3-yl)phenyl)sulfonyl)pyrimidin-4(1H)-one], the EC50 under setting [1] was 0.01 to 10 nM. Consider `COc1cccc(OC)c1-n1c(-c2cncc(C)c2)nc(=O)c(S(=O)(=O)c2ccc(-c3cccnc3C)cc2)c1O` [Example 272, 1-(2,6-dimethoxyphenyl)-6-hydroxy-2-(5-methylpyridin-3-yl)-5-[4-(2-methylpyridin-3-yl)benzenesulfonyl]-1,4-dihydropyrimidin-4-one], for which, for the setting “human APJ, cAMP accumulation”, the concentration giving a half-maximal response (EC50) lay within 0.01 to 10 nM. On to `COc1cccc(OC)c1-n1c(-c2ccc(F)cc2)nc(=O)c(S(=O)(=O)c2ccc(-c3ccncc3C)cc2)c1O` [Example 273], for which, where the note is “human APJ, cAMP accumulation”, the EC50 lay in the range of 0.01 to 10 nM. Turning to `COc1cccc(OC)c1-n1c(-c2cncc(C)c2)nc(=O)c(S(=O)(=O)c2ccc(-c3ccnc(F)c3C)cc2)c1O` [Example 274, 1-(2,6-dimethoxyphenyl)-5-[4-(2-fluoro-3-methylpyridin-4-yl)benzenesulfonyl]-6-hydroxy-2-(5-methylpyridin-3-yl)-1,4-dihydropyrimidin-4-one], under “human APJ, cAMP accumulation”, the EC50 lay within 0.01 to 10 nM. On to `COc1cccc(OC)c1-n1c(-c2ccc(F)cc2)nc(=O)c(S(=O)(=O)c2ccc(-n3cc(Cl)ccc3=O)cc2)c1O` [Example 275, 5-((4-(5-Chloro-2-oxopyridin-1 (2H)-yl)phenyl)sulfonyl)-1-(2,6-dimethoxyphenyl)-2-(4-fluorophenyl)-6-hydroxypyrimidin-4(1H)-one], for which the EC50 under setting [1] fell in the range of 0.01 to 10 nM.

`COc1cccc(OC)c1-n1c(-c2cncc(C)c2)nc(=O)c(S(=O)(=O)c2ccc(-n3cc(Cl)ccc3=O)cc2)c1O` [Example 276, 5-[4-(5-chloro-2-oxo-1,2-dihydropyridin-1-yl)benzenesulfonyl]-1-(2,6-dimethoxyphenyl)-6-hydroxy-2-(5-methylpyridin-3-yl)-1,4-dihydropyrimidin-4-one]: for the setting “human APJ, cAMP accumulation”, the EC50 is 0.01 to 10 nM.

In the case of `COc1cccc(OC)c1-n1c(-c2cncc(C)c2)nc(=O)c(S(=O)(=O)c2ccc(C3CC3)cc2)c1O` [Example 277, 5-(4-cyclopropylbenzene-sulfonyl)-1-(2,6-dimethoxyphenyl)-6-hydroxy-2-(5-methylpyridin-3-yl)-1,4-dihydropyrimidin-4-one], the EC50 (human APJ, cAMP accumulation) lay within 0.01 to 10 nM. Consider `COc1cccc(OC)c1-n1c(-c2ccc(F)cc2)nc(=O)c(S(=O)(=O)c2ccc(C3CC3)cc2)c1O` [Example 278, 5-((4-Cyclopropylphenyl)sulfonyl)-1-(2,6-dimethoxyphenyl)-2-(4-fluorophenyl)-6-hydroxypyrimidin-4(1H)-one], for which, under setting [1], the EC50 lay in the range of 10 to 100 nM. Turning to `CC[C@@H](c1ccccc1)n1c(C2CCCC2)nc(=O)c(S(=O)(=O)c2ccc(Br)cc2)c1O` [Example 279, (S)-5-((4-Bromophenyl)sulfonyl)-2-cyclopentyl-6-hydroxy-1-(1-phenylpropyl)pyrimidin-4(1H)-one], under setting [1], the EC50 was in the range of 10 to 100 nM. Consider `CC[C@@H](c1ccccc1)n1c(C2CCCC2)nc(=O)c(S(=O)(=O)c2ccc(-c3ccc(F)nc3)cc2)c1O` [Example 280, 2-cyclopentyl-5-[4-(6-fluoropyridin-3-yl)benzenesulfonyl]-6-hydroxy-1-[(1S)-1-phenylpropyl]-1,4-dihydropyrimidin-4-one], for which the EC50 (human APJ, cAMP accumulation) was 0.01 to 10 nM.

For the compound `CC[C@@H](c1ccccc1)n1c(C2CCCC2)nc(=O)c(S(=O)(=O)c2ccc(-c3cncc(C)c3)cc2)c1O` [Example 281, 2-cyclopentyl-6-hydroxy-5-[4-(5-methylpyridin-3-yl)benzenesulfonyl]-1-[(1S)-1-phenylpropyl]-1,4-dihydropyrimidin-4-one], the EC50 (human APJ, cAMP accumulation) is 0.01 to 10 nM. In the case of `CC[C@@H](c1ccccc1)n1c(C2CCCC2)nc(=O)c(S(=O)(=O)c2ccc(-c3ccncc3C)cc2)c1O` [Example 282, 2-cyclopentyl-6-hydroxy-5-[4-(3-methylpyridin-4-yl)benzenesulfonyl]-1-[(1S)-1-phenylpropyl] 1,4-dihydropyrimidin-4-one], the EC50 (human APJ, cAMP accumulation) lay in the range of 0.01 to 10 nM.

For `CC[C@@H](c1ccccc1)n1c(C2CCCC2)nc(=O)c(S(=O)(=O)c2ccc(-c3cncc(F)c3)cc2)c1O` [Example 283, 2-cyclopentyl-5-[4-(5-fluoropyridin-3-yl)benzenesulfonyl]-6-hydroxy-1-[(1S)-1-phenylpropyl]-1,4-dihydropyrimidin-4-one], the EC50 (human APJ, cAMP accumulation) lay within 0.01 to 10 nM.

For `CCCCc1nc(=O)c(S(=O)(=O)c2ccc(Br)cc2)c(O)n1[C@@H](CC)c1ccccc1` [Example 284, 5-(4-bromobenzenesulfonyl)-2-butyl-6-hydroxy-1-[(1S)-1-phenylpropyl]-1,4-dihydropyrimidin-4-one], for the setting “human APJ, cAMP accumulation”, the EC50 fell in the range of 0.01 to 10 nM. On the same count and under the same terms, under `CCOCc1nc(=O)c(S(=O)(=O)c2ccc(Br)cc2)c(O)n1[C@@H](CC)c1ccccc1` [Example 285, 5-(4-bromobenzenesulfonyl)-2-(ethoxymethyl)-6-hydroxy-1-[(1S)-1-phenylpropyl]-1,4-dihydropyrimidin-4-one] stands 100 to 300 nM. The same measure, in the same setting: under `CC[C@@H](c1ccccc1)n1c(COC(C)C)nc(=O)c(S(=O)(=O)c2ccc(Br)cc2)c1O` [Example 286, 5-(4-bromobenzenesulfonyl)-6-hydroxy-1-[(1S)-1-phenylpropyl]-2-[(propan-2-yloxy)methyl]-1,4-dihydropyrimidin-4-one] stands 100 to 300 nM; under `CCCCc1nc(=O)c(S(=O)(=O)c2ccc(-n3ccccc3=O)cc2)c(O)n1[C@@H](CC)c1ccccc1` [Example 287, 2-butyl-6-hydroxy-5-[4-(2-oxo-1,2-dihydropyridin-1-yl)benzenesulfonyl]-1-[(1S)-1-phenylpropyl]-1,4-dihydropyrimidin-4-one], 0.01 to 10 nM. In the case of `CCCCc1nc(=O)c(S(=O)(=O)c2ccc(-n3cc(Cl)ccc3=O)cc2)c(O)n1[C@@H](COC)c1ccccc1` [Example 288, 2-butyl-5-[4-(5-chloro-2-oxo-1,2-dihydropyridin-1-yl)benzenesulfonyl]-6-hydroxy-1-[(1R)-2-methoxy-1-phenylethyl]-1,4-dihydropyrimidin-4-one], for the setting “human APJ, cAMP accumulation”, the EC50 was in the range of 0.01 to 10 nM.
